One assay deals with T1, ABCG2 (Homo sapiens, UniProt Q9UNQ0).
T1 construct: membrane vesicles of ABCG2-overexpressing High Five insect cells; homodimer
T1 sequence (Q9UNQ0 1-655): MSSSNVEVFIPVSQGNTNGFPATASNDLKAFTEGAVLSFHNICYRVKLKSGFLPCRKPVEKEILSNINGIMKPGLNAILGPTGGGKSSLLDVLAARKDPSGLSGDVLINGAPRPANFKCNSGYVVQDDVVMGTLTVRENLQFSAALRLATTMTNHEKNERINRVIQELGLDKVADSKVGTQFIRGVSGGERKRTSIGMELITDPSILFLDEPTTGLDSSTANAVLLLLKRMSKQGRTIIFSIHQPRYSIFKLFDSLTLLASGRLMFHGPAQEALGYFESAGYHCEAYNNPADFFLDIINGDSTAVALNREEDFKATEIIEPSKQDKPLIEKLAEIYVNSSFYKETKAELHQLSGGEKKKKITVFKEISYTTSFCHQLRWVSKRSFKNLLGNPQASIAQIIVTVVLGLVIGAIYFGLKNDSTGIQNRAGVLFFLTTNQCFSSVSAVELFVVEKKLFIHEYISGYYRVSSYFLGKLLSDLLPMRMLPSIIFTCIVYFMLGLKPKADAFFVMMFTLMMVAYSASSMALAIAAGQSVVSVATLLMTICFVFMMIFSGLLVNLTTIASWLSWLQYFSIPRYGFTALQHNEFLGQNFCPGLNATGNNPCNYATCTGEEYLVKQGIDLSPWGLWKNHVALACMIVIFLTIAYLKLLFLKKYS
In words: vanadate-sensitive ATPase, endpoint Pi assay, membrane vesicles. It is filed as biochemical. As to conditions: read-out: concentration to produce half of the highest stimulation. From the text: vanadate-sensitive ATPase, endpoint Pi assay, membrane vesicles on ABCG2 | ABCG2-mediated ATP hydrolysis was stimulated by HS-173 in a concentration-dependent manner

Another assay addresses T2, ABCB1 (Homo sapiens, UniProt P08183).
T2 construct: membrane vesicles of ABCB1-overexpressing High Five insect cells
The assay is described as above. In kind it is biochemical. As to conditions: read-out: concentration to produce half of the maximum stimulation. An excerpt: vanadate-sensitive ATPase, endpoint Pi assay, membrane vesicles on ABCB1 | HS-173 stimulated the ATPase activity of ABCB1 in a concentration-dependent manner

The results in this text go back to article PMC10093605, “ABCB1 and ABCG2 Overexpression Mediates Resistance to the Phosphatidylinositol 3-Kinase Inhibitor HS-173 in Cancer Cell Lines” (Cells, 2023).

T2 sequence (P08183 whole entry): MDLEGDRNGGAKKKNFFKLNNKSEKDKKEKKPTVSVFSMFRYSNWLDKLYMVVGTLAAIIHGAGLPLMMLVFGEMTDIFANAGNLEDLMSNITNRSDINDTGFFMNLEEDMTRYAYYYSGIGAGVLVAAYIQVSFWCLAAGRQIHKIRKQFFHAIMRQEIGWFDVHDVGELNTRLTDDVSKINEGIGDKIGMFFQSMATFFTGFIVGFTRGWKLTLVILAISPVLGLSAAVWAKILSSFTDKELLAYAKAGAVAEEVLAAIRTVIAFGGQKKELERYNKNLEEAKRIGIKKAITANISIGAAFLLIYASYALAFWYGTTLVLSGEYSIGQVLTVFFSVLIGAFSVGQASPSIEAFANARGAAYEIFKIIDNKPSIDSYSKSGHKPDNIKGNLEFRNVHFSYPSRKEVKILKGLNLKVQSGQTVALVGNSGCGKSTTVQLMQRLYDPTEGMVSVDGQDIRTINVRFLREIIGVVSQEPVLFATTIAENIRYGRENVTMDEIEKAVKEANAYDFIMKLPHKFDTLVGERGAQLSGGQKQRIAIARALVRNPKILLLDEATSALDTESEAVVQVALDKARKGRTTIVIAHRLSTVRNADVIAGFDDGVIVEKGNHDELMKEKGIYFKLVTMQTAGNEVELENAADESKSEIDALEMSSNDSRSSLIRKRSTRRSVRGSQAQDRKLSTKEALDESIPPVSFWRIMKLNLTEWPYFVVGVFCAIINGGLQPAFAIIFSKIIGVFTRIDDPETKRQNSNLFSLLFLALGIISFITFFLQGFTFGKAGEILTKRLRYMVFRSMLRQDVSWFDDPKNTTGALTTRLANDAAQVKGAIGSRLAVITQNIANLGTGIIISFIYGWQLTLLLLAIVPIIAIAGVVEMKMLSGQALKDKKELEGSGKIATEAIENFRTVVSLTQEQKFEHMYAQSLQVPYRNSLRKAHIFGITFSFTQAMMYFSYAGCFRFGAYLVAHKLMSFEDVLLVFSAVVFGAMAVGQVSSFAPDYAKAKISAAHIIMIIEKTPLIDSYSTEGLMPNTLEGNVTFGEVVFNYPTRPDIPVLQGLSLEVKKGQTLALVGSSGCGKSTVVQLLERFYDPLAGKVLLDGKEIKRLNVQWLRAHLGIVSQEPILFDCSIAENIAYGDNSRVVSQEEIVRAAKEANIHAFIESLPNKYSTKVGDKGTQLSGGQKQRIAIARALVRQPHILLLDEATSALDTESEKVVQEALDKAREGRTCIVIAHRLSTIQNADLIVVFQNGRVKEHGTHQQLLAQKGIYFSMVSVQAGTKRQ

`CCOC(=O)c1cnc2ccc(-c3cncc(NS(=O)(=O)c4ccccc4)c3)cn12` [HS-173]: the EC50 at ABCG2 was roughly 400 nM; at ABCB1, roughly 1700 nM.
